Results taken from ChEMBL document CHEMBL1201862, “PubChem BioAssay data set” (2004).
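All cell lines were grown in 96-well plates and treated with compound for 48 hours. GI50: concentration for 50% inhibition of growth.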 Activity calls are given as the source filed them. Cut-off read from the data, not from the text of the source: active = GI50 up to about 1.1 µM and inactive = higher.

Key:
Assay in all cases: NCI-60 cell line screen, 48 h
TK-10 = tested on: TK-10
SK-OV-3 = tested on: SK-OV-3
CCRF-CEM = tested on: CCRF-CEM
COLO 205 = tested on: COLO 205
SF-295 = tested on: SF-295
T47D = tested on: T47D
OVCAR-4 = tested on: OVCAR-4
SF-539 = tested on: SF-539
SNB-19 = tested on: SNB-19
MDA-MB-231 = tested on: MDA-MB-231
NCI-H522 = tested on: NCI-H522
M14 = tested on: M14
KM12 = tested on: KM12
RXF 393 = tested on: RXF 393
NCI-H226 = tested on: NCI-H226
A549 = tested on: A549
Malme-3M = tested on: Malme-3M
M19-MEL = tested on: M19-MEL
DMS-273 = tested on: DMS-273
HCT-116 = tested on: HCT-116

Measured: GI50

Cn1ccc(C(=O)NCCN(CCNC(=O)c2ccn(C)c(=O)c2O)CCNC(=O)c2ccn(C)c(=O)c2O)c(O)c1=O
inactive: TK-10 > 100 µM | SK-OV-3 > 100 µM | CCRF-CEM > 100 µM | COLO 205 > 100 µM | SF-295 > 100 µM | T47D > 100 µM | OVCAR-4 > 100 µM | SF-539 > 100 µM | SNB-19 > 100 µM | MDA-MB-231 > 100 µM | NCI-H522 > 100 µM | M14 > 100 µM | KM12 > 100 µM | RXF 393 > 100 µM | NCI-H226 > 100 µM | A549 > 100 µM | Malme-3M > 100 µM

O=Cc1ccc(CCl)cc1
inactive: TK-10 22.1 µM | SK-OV-3 22.1 µM | CCRF-CEM 12.4 µM | M19-MEL 17.3 µM | COLO 205 48 µM | SF-295 17.4 µM | DMS-273 19.8 µM | HCT-116 14.5 µM | SF-539 17.1 µM | SNB-19 14.7 µM | NCI-H522 19.7 µM | M14 14.8 µM | KM12 23.5 µM | RXF 393 16.9 µM | A549 39.2 µM

C#CCn1c(=O)c(C#N)c(O)c2cc3ccccc3nc21
inactive: SK-OV-3 > 100 µM | CCRF-CEM > 100 µM | M19-MEL > 100 µM | COLO 205 > 100 µM | SF-295 > 100 µM | DMS-273 > 100 µM | OVCAR-4 > 10 µM | HCT-116 > 100 µM | SNB-19 > 100 µM | NCI-H522 > 100 µM | KM12 > 100 µM | RXF 393 > 100 µM | NCI-H226 > 84.1 µM | A549 > 100 µM | Malme-3M > 100 µM

CCN(CC)CCN(C(=O)c1ccc(F)cc1)c1ccccc1N
inactive: TK-10 > 10 µM | SK-OV-3 > 10 µM | CCRF-CEM > 10 µM | COLO 205 > 10 µM | SF-295 > 10 µM | T47D > 10 µM | OVCAR-4 > 10 µM | HCT-116 > 10 µM | SF-539 > 10 µM | SNB-19 > 10 µM | MDA-MB-231 > 10 µM | NCI-H522 > 10 µM | M14 > 10 µM | KM12 > 10 µM | RXF 393 > 10 µM | NCI-H226 3.72 µM | A549 > 10 µM | Malme-3M > 10 µM

CCCCC(NC(=O)CC)C(=O)O (stereo not given)
inactive: SK-OV-3 > 100 µM | CCRF-CEM > 100 µM | M19-MEL > 100 µM | COLO 205 > 100 µM | SF-295 > 100 µM | DMS-273 > 100 µM | OVCAR-4 > 100 µM | HCT-116 > 100 µM | SF-539 > 100 µM | SNB-19 > 100 µM | NCI-H522 > 100 µM | KM12 > 100 µM | NCI-H226 > 100 µM | A549 > 100 µM | Malme-3M > 100 µM

COc1ccc(-c2nnc(-c3nsc4ccccc34)o2)cc1
inactive: TK-10 > 100 µM | M19-MEL > 100 µM | COLO 205 > 100 µM | DMS-273 71.4 µM | OVCAR-4 65.9 µM | HCT-116 38.4 µM | SF-539 31.2 µM | SNB-19 > 100 µM | M14 80.9 µM | KM12 49 µM | RXF 393 32.5 µM | A549 78.5 µM

c1ccc2c(c1)SC1Sc3ccccc3[S+]21 (stereo not given)
inactive: TK-10 18.4 µM | SK-OV-3 > 100 µM | CCRF-CEM 16.5 µM | COLO 205 11.1 µM | SF-295 53.2 µM | T47D 12.5 µM | OVCAR-4 41.3 µM | HCT-116 22.7 µM | SF-539 23.2 µM | SNB-19 > 81.1 µM | MDA-MB-231 23.7 µM | NCI-H522 6.53 µM | M14 21.5 µM | KM12 16.4 µM | RXF 393 > 45.1 µM | NCI-H226 19.9 µM | A549 27.4 µM | Malme-3M 2.98 µM

COc1ccc(/C=C/c2cnccn2)cc1OC
inactive: TK-10 > 10 µM | SK-OV-3 > 10 µM | COLO 205 > 10 µM | SF-295 > 10 µM | T47D > 10 µM | OVCAR-4 > 10 µM | HCT-116 > 10 µM | SF-539 > 10 µM | SNB-19 > 10 µM | MDA-MB-231 > 10 µM | NCI-H522 > 10 µM | M14 > 10 µM | KM12 > 10 µM | RXF 393 > 10 µM | NCI-H226 > 10 µM | A549 > 10 µM | Malme-3M > 10 µM

O=C(NC1C2CC3CC(C2)CC1C3)c1cc(/C=C/c2ccccc2)nc(S)n1 (stereo not given)
inactive: TK-10 > 100 µM | SK-OV-3 > 100 µM | CCRF-CEM > 100 µM | M19-MEL > 100 µM | COLO 205 > 100 µM | SF-295 > 100 µM | DMS-273 > 100 µM | OVCAR-4 > 100 µM | HCT-116 > 100 µM | SF-539 > 100 µM | SNB-19 > 100 µM | NCI-H522 > 100 µM | M14 > 100 µM | KM12 > 100 µM | RXF 393 > 100 µM | A549 > 100 µM | Malme-3M > 100 µM

O=C(NC1C(O)C(O)C(CO)OC1n1cc(F)c(=O)[nH]c1=O)OCc1ccccc1 (stereo not given)
inactive: TK-10 > 100 µM | SK-OV-3 > 100 µM | CCRF-CEM 22.2 µM | COLO 205 > 100 µM | SF-295 > 100 µM | DMS-273 > 100 µM | OVCAR-4 > 100 µM | HCT-116 > 100 µM | SNB-19 > 100 µM | NCI-H522 > 100 µM | M14 > 100 µM | KM12 > 100 µM | RXF 393 > 100 µM | NCI-H226 > 100 µM | A549 > 100 µM | Malme-3M > 100 µM

C(/C=N/c1ccccc1)=C(/Nc1ccccc1)C12CC3CC(CC(C3)C1)C2
inactive: TK-10 21.4 µM | SK-OV-3 16.4 µM | CCRF-CEM 2.72 µM | COLO 205 15.9 µM | SF-295 16.6 µM | T47D 15.3 µM | OVCAR-4 16.3 µM | HCT-116 13.2 µM | SNB-19 17.2 µM | MDA-MB-231 16.3 µM | NCI-H522 10.4 µM | M14 12.7 µM | KM12 17 µM | RXF 393 17.1 µM | NCI-H226 19.2 µM | A549 24.1 µM | Malme-3M 18.5 µM

COc1cc(C2c3cc4c(cc3OC(N3CCCCC3)C2C)OCO4)cc(OC)c1OC (stereo not given)
inactive: TK-10 7.71 µM | SK-OV-3 2.77 µM | CCRF-CEM 2.84 µM | COLO 205 3.02 µM | SF-295 1.75 µM | T47D 4.23 µM | OVCAR-4 13 µM | HCT-116 3.37 µM | SF-539 2.2 µM | SNB-19 3.24 µM | MDA-MB-231 4.98 µM | NCI-H522 2.49 µM | M14 2.83 µM | KM12 2.88 µM | RXF 393 2.15 µM | NCI-H226 3.39 µM | A549 4.04 µM | Malme-3M 5.83 µM
